Measured values from patent publication US4937240A, “Thienotriazolodiazepine compounds and pharmaceutical uses thereof” (Yoshitomi Pharmaceutical Industries, Ltd., priority 1988, dated 1990).

What was measured:
PAF-induced lethal shock [1] = test: Effect on PAF-induced lethal shock in mice (i.v.); type: in vivo; details: Mus musculus, male ICR mice, 80 μg/kg PAF i.v. 1 hour after intravenous administration, observed 24 hours
Protocol: (§1) In order to determine PAF-antagonistic activity of the compounds of the present invention, the inhibitory effects of PAF-induced lethal shock in mice were investigated by oral administration and intravenous administration.
Experiment 2: Effect on PAF-induced lethal shock in mice (i.v.)
The experiment was carried out according to the method of Young et al. as described in Experiment 1. Groups of 8 to 15 male ICR mice (Charles River) weighing 25-30 g were used. 80 μg/kg of PAF (Serdary Research Lab.) solution was intravenously administered in a lateral a tail vein 1 hour after the intravenous administration of test compound ([…]). […] Results were given as ED50 (mg/kg) in Table 2.

PAF-induced lethal shock [2] = test: Effect on PAF-induced lethal shock in mice (p.o.); type: in vivo; details: Mus musculus, male ICR mice, 80 μg/kg PAF i.v. 1 hour after oral administration, observed 24 hours
Protocol: as §1
Experiment 1: Effect on PAF-induced lethal shock in mice (p.o.)
The experiment was carried out according to the method of Young et al. described in Prostaglandins, vol. 30, p. 545 (1985). Groups of 9 to 15 male ICR mice (Charles River) weighing 25-30 g were used. 80 μg/kg of PAF (Serdary Research Lab.) solution was intravenously administered in a lateral tail vein 1 hour after the oral administration of test compound (0.1 ml/10 g). […] Results were given as ED50 (mg/kg) in Table 1.

PAF = details: literature; cited from earlier work

SMILES | ED50 (PAF-induced lethal shock [1]) [mg/kg] | ED50 (PAF-induced lethal shock [2]) [mg/kg] | antagonistic activity on PAF (PAF)
Cc1nnc2n1-c1sc(CCC(=O)N3CCOCC3)cc1C(c1ccccc1Cl)=NC2C (centres unmarked) [A, 3-[4-(2-chlorophenyl)-6,9-dimethyl-6H-thieno[3,2-f][1,2,4]triazolo[4,3-a][1,4]diazepin-2-yl]propionic acid morpholide] | 0.021 | 0.065 | –
Cc1nnc2n1-c1sc(CCC(=O)N3CCOCC3)cc1C(c1ccccc1Cl)=NC2 [4-(2-chlorophenyl)-9-methyl-6H-thieno[3,2-f][1,2,4]triazolo[] [4-(2-chlorophenyl)-9-methyl-6H-thieno[3,2-f][1,2,4]triazolo[4,3-a][1,4]diazepine-2-propionic acid morpholide] | – | – | exhibit antagonistic activity on PAF
Cc1nnc2n1-c1sc3c(c1C(c1ccccc1Cl)=NC2)CC(CN1CCOCC1)C3 (centres unmarked) [STY 2108, 5-(2-chlorophenyl)-3,4-dihydro-10-methyl-3-morpholinomethyl-2H,7H-cyclopenta[4,5]thieno[3,2-f][1,2,4]triazolo[4,3-a][1,4]diazepine] | – | – | exhibit more potent PAF-antagonistic activity
Cc1nnc2n1-c1sc(CCC(=O)N3CCN(CC(C)C)CC3)cc1C(c1ccccc1Cl)=NC2C (centres unmarked) [D, 3-[4-(2-chlorophenyl)-6,9-dimethyl-6H-thieno[3,2-f][1,2,4]triazolo[4,3-a][1,4]diazepin-2-yl]propionic acid 4-isobutyl-1-piperazide] | – | 0.3 | –
Cc1nnc2n1-c1sc(CCC(=O)N3CCOCC3)cc1C(c1ccccc1Cl)=NC2 [WEB 2086, 3-[4-(2-chlorophenyl)-9-methyl-6H-thieno[3,2-f][1,2,4]triazolo[4,3-a][1,4]diazepin-2-yl]propionic acid morpholide, reference compound] | 0.125 | 1.6 | exhibit more potent PAF-antagonistic activity
Cc1nnc2n1-c1sc3c(c1C(c1ccccc1Cl)=NC2C)CC(CN1CCOCC1)C3 (centres unmarked) [C, 5-(2-chlorophenyl)-3,4-dihydro-7,10-dimethyl-3-morpholinomethyl-2H,7H-cyclopenta[4,5]thieno[3,2-f][1,2,4]triazolo[4,3-a][1,4]diazepine 1/2 hydrate] | – | 0.2 | –
Cc1nnc2n1-c1sc3c(c1C(c1ccccc1Cl)=NC2C)CC(C(=O)N1CCOCC1)C3 (centres unmarked) [B, 5-(2-chlorophenyl)-3,4-dihydro-7,10-dimethyl-3-morpholinocarbonyl-2H,7H-cyclopenta[4,5]thieno[3,2-f][1,2,4]triazolo[4,3-a][1,4]diazepine] | – | 0.55 | –
CCCN(CCC)C(=O)CCc1cc2c(s1)-n1c(C)nnc1C(C)N=C2c1ccccc1Cl (centres unmarked) [E, 3-[4-(2-chlorophenyl)-6,9-dimethyl-6H-thieno[3,2-f][1,2,4]triazolo[4,3-a][1,4]diazepin-2-yl]propionic acid N,N-dipropylamide] | – | 0.14 | –
